Results: patent publication US9975852B2, “Quinoline sulfonyl derivatives and uses thereof” (Health Sciences North Research Institute, priority 2013, dated 2018)
pIC50: −log10 of the molar value.

Legend:
[1] = tested on: MDA-MB231 human metastatic breast cancer cells; assay: Xenograft antitumor activity, ATH490 mice engrafted with MDA-MB231; assay type: in vivo
Method: Five-week-old female CD-1 and ATH490 (strain code 490) athymic nude mice were purchased from Charles River (Quebec, Canada). The MDA-MB231 human metastatic breast cancer cells were obtained from the American Tissue Culture Collection (ATCC, Manassas, Va., USA). Cells were maintained under humidified condition at 37° C. and 5% CO2 in DMEM high glucose medium (ATCC) supplemented with 10% fetal bovine serum and antibiotics. All animal experiments, including animal handling, care, treatment and endpoint determination, were reviewed and approved by the Laurentian University Animal Care Committee (ACC) and carried out at Laurentian University Animal Care facility (Sudbury, Ontario, Canada)
To determine anti-tumor activity of VR-23 in an animal model, a xenograft model of human breast cancer cells in athymic nude mice was established. Exponentially growing MDA-MB231 cells were harvested and counted for inoculation into mice. Each mouse was subcutaneously injected at the flank with 10×10^6 cells in 0.2 ml ice cold 1×PBS. When tumor size reached 4-5 mm in diameter (n=4-5 per group), mice were randomly assigned into five (or more) groups.

[2] = target: T1, Caspase-like proteasome activity in HeLa S3 cell lysates (Homo sapiens, UniProt P28072); assay: Proteasome activity assay, caspase-like; assay type: biochemical; conditions: read-out: Inhibition (IC50) Caspase-like
T1 construct: proteasomes were extracted in 0.5% NP40 buffer; endogenous in cells; host or cells: HeLa S3
Method: Exponentially growing HeLa S3 cells were plated on 96-well plates. After overnight incubation, the cells were treated with different concentrations of drugs for 6 hours or left untreated (control). At the end of 6 hours, proteasomes were extracted in 0.5% NP40 buffer, and equal amounts of samples were incubated with 25 μM of fluorogenic substrates purchased from Boston Biochem (Cambridge Mass.). (LRR-specific for trypsin-like activity, LLE-specific for caspase-like activity and SUVY-specific for chymotrypsin like activity) in black-bottom 96-well plates at 37° C. Fluorescence was monitored every 5 min at the wavelength of 360 nm (excitation) and 480 nm (emission). Chymotrypsin activity was also determined by a kit-based method (similar to described above) purchased from Caymen Biochem (Ann Arbor, Mich.), using a fluorogenic substrate specific for chymotrypsin activity.
Analysis of proteasome activity in HeLa S3 cell lysates treated with various compounds (FIG. 10). VR-23 inhibits proteasome activity. 20S proteasome activity was inhibited by 1 μM VR-23. MG132 and EGCG, known proteasome inhibitors, were used as positive controls. The PC positive control is cell lysates prepared from Jurkat cells with a high proteasome activity. “Asynchr” denote asynchronous HeLa S3 cells grown in the absence of VR-23.

O=[N+]([O-])c1ccc(S(=O)(=O)N2CCN(c3ccnc4cc(Cl)ccc34)CC2)c([N+](=O)[O-])c1 [Compound 1, 7-Chloro-4-(4-(2,4-dinitrophenylsulfonyl)piperazin-1-yl)quinoline]
Decrease of tumor size compared to sham-treated control ([1]; VR-23 30 mg/kg twice per week i.p., three weeks): 4.6 fold | Tumor size D0 ([1]; day 0, dosing as in Table IX B): 46.51 ± 2.82 | Tumor size D7 ([1]; day 7 post-treatment, dosing as in Table IX B): 52.74 ± 5.64 | Tumor size D15 ([1]; day 15 post-treatment, dosing as in Table IX B): 48.29 ± 17.30 | Tumor size D18 ([1]; day 18 post-treatment, dosing as in Table IX B): 42.41 ± 17.95 | Tumor size D22 ([1]; day 22 post-treatment, dosing as in Table IX B): 65.88 ± 25.92 | VEGF immunostaining of tumor ([1]; four weeks treatment): did not show any notable amount of VEGF | Angiogenesis and spread of tumor cells ([1]; four weeks treatment, H & E): inhibited angiogenesis and the spread of tumor cells to surrounding tissue/organs | Tumor cell proliferation (Ki-67, mitotic index) ([1]; tumor samples 15 and 29 days post-treatment): inhibited tumor cell proliferation | pIC50 [2]: 5.52
